The values below come from PMC11992225, “Antibacterial compounds against non-growing and intracellular bacteria” (npj Antimicrobials and Resistance, 2025).

The test system of experiment [1] is non-growing S. aureus DSM2569. The experiment can be described thus: Dose-dependent killing analysis (CFU spot-plating) of stationary-phase S. aureus. The experiment is classed as cell-based, Staphylococcus aureus. Particulars: at 10 µM, 24 h treatment. Summed up: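 Survival was scored as CFU after overnight growth at 37 °C on LB agar, using spots from 10-fold PBS dilutions of treated cultures. Non-growing S. aureus DSM2569 had been exposed to compound for 24 h in 1:4 CA-MHB, pH 7.4. Three biological replicates were run.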

In experiment [2] the test system is non-growing S. aureus DSM2569. The experiment can be described thus: Dilution-regrowth assay (OD600, start-growth-time) on stationary-phase S. aureus. It counts as cell-based, Staphylococcus aureus. Particulars: for Regrowth, OD600 at 6h or 8h after dilution into drug-free medium (average): S. aureus. The essentials: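 Non-growing S. aureus was tested in a dilution-regrowth format. Cells were cultured and treated for 24 h in 1:4 diluted CA-MHB, pH 7.4, then diluted into drug-free medium, and OD600 was measured every 20 min. Start-growth-time was the time OD600 passed 0.12. Dose-response curves were fitted with a five-parameter logistic equation to derive EC50.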

In experiment [3] the test system is non-growing P. aeruginosa DSM1117. The experiment can be described thus: Dose-dependent killing analysis (CFU spot-plating) of stationary-phase P. aeruginosa. It counts as cell-based, Pseudomonas aeruginosa. To be noted: for killing, average Δlog10(CFU/ml): P. aeruginosa. Summed up:
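Viability by CFU: samples serially diluted 10-fold in PBS, spotted on LB agar, grown overnight at 37 °C, and colonies counted at the lowest resolvable dilution. Non-growing P. aeruginosa DSM1117 had been dosed for 24 h in 1:4 CA-MHB (pH 7.4); three biological replicates.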

For experiment [4], the system named is SOS response in UPEC CFT073. Kind of experiment: SOS response induction analysis, pAED2 cda' promoter mScarlet-I reporter. The experiment is classed as cell-based, Escherichia coli. To be noted: 20 μM, 6 h; MMC, BLE, ECH in 1:4 CA-MHB pH 7.4; PLI, SAT, EVO in LPM pH 5.5. As for the experimental part: Since we aimed to test SOS induction in non-growing cultures, it was essential to use a reporter with no leaky expression in the stationary phase. Therefore, we constructed the plasmid pAED2, based on the low copy-number plasmid pSC101, which contains the cda’ promoter in front of the mScarlet-I-encoding reporter gene.
Overnight cultures of CFT073 harboring a reporter plasmid were grown in 3 ml of LB supplemented with 100 µg/ml carbenicillin (Cb), then diluted 1:100 into the medium used for testing. For validation of the pANO1::cda’ reporter, an overnight culture was diluted into CA-MHB (supplemented with 40 mM HEPES, pH 7.4, and 100 µg/ml Cb) and grown to an OD600 ≈ 0.5 at 37 °C with shaking at 200 rpm in an Erlenmeyer flask. […] Empty wells were filled with water. […] The experiment was performed in triplicate.
For analysis of the SOS induction by anti-cancer compounds, the overnight cultures were diluted either into 1:4 diluted CA-MHB (40 mM HEPES, pH 7.4) or LPM (30 mM MES, pH 5.5) that were supplemented with 100 µg/ml Cb. For analysis of the effect on growing bacteria, the cultures were incubated at 37 °C with shaking at 200 rpm in Erlenmeyer flasks for 90 min, to an OD600 ≈ 0.5. Then, 180 μl aliquots were transferred to 96-well plates, and 20 μl of the 200 μM drug solution was added to achieve a final concentration of 20 μM. The plates were incubated in a microplate reader (BioTek Synergy H1) at 37 °C with continuous shaking for 6 h. OD600 and mScarlet fluorescence were recorded throughout the incubation.
For analysis of the effect of anti-cancer compounds on stationary phase- and regrowing bacteria, the cultures were incubated for 24 h at 37 °C with shaking at 200 rpm in Erlenmeyer flasks. […] The samples were incubated for 24 h at 37 °C in standing 1.5 ml tubes. Before and after the drug treatment, 25 μl aliquots were taken and diluted by mixing with 175 μl PBS. OD600 and mScarlet fluorescence were recorded using a microplate reader (BioTek Synergy H1).
After the treatment, stationary-phase bacteria were harvested by centrifugation at 5000 × g for 5 min at 20 °C, washed twice with PBS, and resuspended in 475 μl PBS.

For `CO[C@@]12[C@H](COC(N)=O)C3=C(C(=O)C(C)=C(N)C3=O)N1C[C@@H]1N[C@@H]12` [Mitomycin C], in experiment [1], the “reduction of non-growing S. aureus” value is on record as “below the limit of detection”. The “Regrowth, OD600 at 6h or 8h after dilution into drug-free medium (average)” value in experiment [2] (drug concentration 0.1) turned out to be 0.433; in experiment [2] (drug concentration 0.5) it was 0.163; in experiment [2] (drug concentration 2.5), 0.087; in experiment [2] (drug concentration 10), 0.106. Also, a half-maximal effect in experiment [2] (Staphylococcus aureus, DSM2569, pH 7.4) (EC50) was put at 129 nM. Further, the “killing, average Δlog10(CFU/ml)” value was 1.020 log10(CFU/ml) in experiment [3] (drug concentration 0.1), 2.346 log10(CFU/ml) in experiment [3] (drug concentration 0.5), 4.887 log10(CFU/ml) in experiment [3] (drug concentration 2.5) and 4.887 log10(CFU/ml) in experiment [3] (drug concentration 10). The “killing of non-growing P. aeruginosa” value in experiment [3] (at 2.5 µM, 24 h treatment) is recorded as > 4 log10. Further, the “induction of the SOS response in growing UPEC cultures” value in experiment [4] is recorded as “induced the SOS response”.

What is called EC50 is the concentration at which the effect is half-maximal. Low values mean an effect from little substance, high ones a need for much substance.
